Reference: patent US10052330B2, “Substituted pyrido[3,4-b]pyrazines as Syk inhibitors” (HUTCHISON MEDIPHARMA LIMITED, priority 2011, dated 2018)

Assays:
[1] = tested on: RBL-2H3 cells; experiment: IgE-induced Beta-hexosaminidase secretion in RBL-2H3 cells; assay type: cell-based; conditions: Rattus norvegicus, RBL-2H3, RBL-2H3 cells sensitized with SPE-7, stimulated with DNP-BSA; upper bound of each range is 'less than'; read-out: IC50, IgE-induced Beta-hexosaminidase secretion
[2] = biological target: Syk kinase (Homo sapiens, UniProt P43405); experiment: Syk kinase enzymatic assay (Kit-Tyr 2 Peptide); assay type: biochemical; conditions: 8 concentrations, 1 μM down to 0.0003 μM; upper bound of each range is 'less than'; read-out: IC50: Enzymatic Activity (Syk kinase)

| Structure (SMILES) | IC50 [1] | IC50 [2] |
| --- | --- | --- |
| CN1CCN(c2ccc(-c3cc4nccnc4c(NCC4CNCCC4(F)F)n3)cc2)CC1 (stereo not shown) [Compound 293] | 100 to 1000 nM | 1 to 100 nM |
| Fc1cc(-c2cc3nccnc3c(NCC3CNCCC3(F)F)n2)ccc1N1CCOCC1 (stereo not shown) [Compound 294] | 1 to 100 nM | 1 to 100 nM |
| Cc1cc(-c2cc3nccnc3c(NCC3CNCCC3(F)F)n2)ccc1N1CCOCC1 (stereo not shown) [Compound 295] | 1 to 100 nM | 1 to 100 nM |
| COc1ccc(-c2cc3nccnc3c(NCC3CNCCC3(F)F)n2)cc1F (stereo not shown) [Compound 296] | 1 to 100 nM | 1 to 100 nM |
| CC(C)Oc1ccc(-c2cc3nccnc3c(NCC3CNCCC3(F)F)n2)cc1F (stereo not shown) [Compound 297] | 1 to 100 nM | 1 to 100 nM |
| COc1ccc(-c2cc3nccnc3c(NCC3CNCCC3(F)F)n2)cc1Cl (stereo not shown) [Compound 298] | 1 to 100 nM | 1 to 100 nM |
| CNc1ccc(-c2cc3nccnc3c(NCC3CNCCC3(F)F)n2)cc1F (stereo not shown) [Compound 300] | 1 to 100 nM | 1 to 100 nM |
| CN(C)c1ccc(-c2cc3nccnc3c(NCC3CNCCC3(F)F)n2)cc1F (stereo not shown) [Compound 301] | 1 to 100 nM | 1 to 100 nM |
| CNc1ccc(-c2cc3nccnc3c(NCC3CNCCC3(F)F)n2)cn1 (stereo not shown) [Compound 302] | 1 to 100 nM | 1 to 100 nM |
| CN(C)Cc1ccc(-c2cc3nccnc3c(NCC3CNCCC3(F)F)n2)cc1 (stereo not shown) [Compound 303] | 100 to 1000 nM | 100 to 1000 nM |
| CN(C)C(=O)c1ccc(-c2cc3nccnc3c(NCC3CNCCC3(F)F)n2)cc1 (stereo not shown) [Compound 304] | 1 to 100 nM | 100 to 1000 nM |
| CC(=O)N1CCN(c2ccc(-c3cc4nccnc4c(NCC4CNCCC4(F)F)n3)cc2)CC1 (stereo not shown) [Compound 305] | 1 to 100 nM | 1 to 100 nM |
| CNC(=O)COc1ccc(-c2cc3nccnc3c(NCC3CNCCC3(F)F)n2)cc1 (stereo not shown) [Compound 306] | 1 to 100 nM | 1 to 100 nM |
| FC1(F)CCNCC1CNc1nc(-c2ccc(N3CCNCC3)cc2)cc2nccnc12 (stereo not shown) [Compound 307] | 1 to 100 nM | 1 to 100 nM |
| CC1CN(c2ccc(-c3cc4nccnc4c(NCC4CNCCC4(F)F)n3)cc2)CCO1 (stereo not shown) [Compound 309] | 1 to 100 nM | 1 to 100 nM |
| CS(=O)(=O)c1ccc(-c2cc3nccnc3c(NCC3CNCCC3(F)F)n2)cc1 (stereo not shown) [Compound 310] | 1 to 100 nM | 1 to 100 nM |
| CCn1cc(-c2cc3nccnc3c(NCC3CNCCC3(F)F)n2)cn1 (stereo not shown) [Compound 311] | 1 to 100 nM | 1 to 100 nM |
| OCCN1CCN(c2ccc(-c3cc4nccnc4c(NCC4CNCCC4(F)F)n3)cc2)CC1 (stereo not shown) [Compound 312] | 1 to 100 nM | 1 to 100 nM |
| CN(c1ccc(-c2cc3nccnc3c(NCC3CNCCC3(F)F)n2)cc1)S(C)(=O)=O (stereo not shown) [Compound 313] | 1 to 100 nM | 1 to 100 nM |
| FC1(F)CCNCC1CNc1nc(-c2cnn(C3CCOCC3)c2)cc2nccnc12 (stereo not shown) [Compound 314] | 1 to 100 nM | 1 to 100 nM |
